Data as given in publication PMC12603272 (2025).

Tested on: AT-rich palindromic dodecanucleotide dsDNA (DNA, duplex) CGCAAATTTGCG
Assay: photoluminescence titration
Conditions: dsDNA stock 10 mM Tris, 0.1 mM EDTA pH 8.0, 25 °C

SMILES | binding (dsDNA (0-8 µM) into 8 µM compound in D2O) | binding (dsDNA (0-10 µM) into 10 µM compound in D2O)
CN1CCN(c2ccc3nc(-c4ccc5nc(-c6ccc(O)cc6)[nH]c5c4)[nH]c3c2)CC1 | yes | –
Cn1ccc(=Nc2ccc(NC(=O)c3ccc(N=c4ccn(C)c5ccc([N+](=O)[O-])cc45)cc3)cc2)cc1 | – | yes
